Test results taken from patent US6908945B2, “Ester compound and its use” (Sumitomo Chemical Company, Limited, priority 2002, dated 2005).

Legend:
Adult houseflies = assay: Knock-down test, oil solution sprayed into cubic chamber, adult houseflies; assay type: in vivo; conditions: 70 cm cubic chamber, 5 male and 5 female adult houseflies, counted for 10 minutes; for time for knocking down half of the tested insects (KT50): 0.7 ml of 0.00625% oil solution sprayed, two repetitions
Source text: A solution of 0.025 part of the present compound prepared by the production example mentioned above dissolved with 10 parts of dichloromethane was mixed with 89.9975 parts of deodorized kerosene to give a […] oil solution.
Adult houseflies (5 males and 5 females) were left in a cubic chamber (70 cm at side). Seven-tenths (0.7) ml of the 0.025% oil solution of the present compound prepared above was sprayed with a spray gun at a pressure of 8.8×10^4 Pa from a small window on the side of the chamber. Then, the number of the knocked-down insects was counted at times for 10 minutes. The time for knocking down half of the tested insects was 1.0 minute.
A solution of 0.00625 part of the present compound prepared by the production example mentioned above dissolved with 10 parts of dichloromethane was mixed with 89.99375 parts of deodorized kerosene to give a 0.00625% oil solution.
Adult houseflies (5 males and 5 females) were left in a cubic chamber (70 cm at side). Seven-tenths (0.7) ml of the 0.00625% oil solution of the present compound prepared above was sprayed with a spray gun at a pressure of 8.8×10^4 Pa from a small window on the side of the chamber. Then, the number of the knocked-down insects was counted at times for 10 minutes (two repetitions). The time for knocking down half of the tested insects (KT50) was observed. The KT50 value was 1.1 minutes.
The same test except that 4-methoxymethy-2,3,5,6-tetrafluorobenzyl (1R,trans)-3-(2-fluoro-1-propenyl)-2,2-dimethylcyclopropanecarboxylate, which is a compound of Example 12 of WO 99/32426, was used in place of the present compound was performed for reference. The KT50 value was 5.0 minutes.

[1] = test system: female common mosquitoes (Culex pipiens pallens); assay: Knock-down test, oil solution sprayed into cubic chamber, common mosquitoes; assay type: in vivo; conditions: 0.7 ml of 0.00625% oil solution sprayed, 70 cm cubic chamber, ten female Culex pipiens pallens, counted for 10 minutes
Source text: A solution of 0.00625 part of the present compound (1R,cis-E) dissolved with 10 parts of dichloromethane was mixed with 89.99375 parts of deodorized kerosene to give a […] oil solution.
Ten female common mosquitoes (Culex pipiens pallens) were left in a cubic chamber (70 cm at side). Seven-tenths (0.7) ml of the 0.00625% oil solution of the present compound prepared above was sprayed with a spray gun at a pressure of 8.8×10^4 Pa from a small window on the side of the chamber. Then, the number of the knocked-down insects was counted at times for 10 minutes. The time for knocking down half of the tested insects was 1.3 minute.
The same test except that 3-phenoxybenzyl (1R,cis)-3-((E)-2-cyano-1-propenyl)-2,2-dimethylcyclopropanecarboxylate, which is a compound described in Indian Patent No. 152306, was used in place of the present compound was performed for reference. The KT50 value was 8.0 minutes.

| Compound | time for knocking down half of the tested insects (KT50) (Adult houseflies) | time for knocking down half of the tested insects (KT50) [1] | time for knocking down half of the tested insects (Adult houseflies; 0.7 ml of 0.025% oil solution sprayed) |
| --- | --- | --- | --- |
| COCc1c(F)c(F)c(COC(=O)[C@@H]2[C@H](C=C(C)F)C2(C)C)c(F)c1F (relative stereo) [Example 12 of WO 99/32426, 4-methoxymethy-2,3,5,6-tetrafluorobenzyl (1R,trans)-3-(2-fluoro-1-propenyl)-2,2-dimethylcyclopropanecarboxylate, reference compound] | 5.0 min |  |  |
| COCc1c(F)c(F)c(COC(=O)C2C(C=C(C)C#N)C2(C)C)c(F)c1F [present compound (1R,cis-E)] |  | 1.3 min |  |
| COCc1c(F)c(F)c(COC(=O)C2C(C=C(C)C#N)C2(C)C)c(F)c1F (centres unmarked) [present compound, 4-methoxymethy-2,3,5,6-tetrafluorobenzyl 3-(2-cyano-1-propenyl)-2,2-dimethylcyclopropanecarboxylate] | 1.1 min |  | 1.0 min |
| C/C(C#N)=C\[C@H]1[C@@H](C(=O)OCc2cccc(Oc3ccccc3)c2)C1(C)C (relative stereo) [3-phenoxybenzyl (1R,cis)-3-((E)-2-cyano-1-propenyl)-2,2-dimethylcyclopropanecarboxylate, reference compound] |  | 8.0 min |  |
